Patent EP0457243A1, “Novel tricyclic compounds” (priority 1990, dated 1991)
Where two headings read alike, the source gives them in different places.

What was measured:
C5BI/6J mice = test: Mouse anxiolytic behavior model (two-compartment exploratory model); format: in vivo; set-up: % ACTIVITY DARK AREA W% / SHUTTLE ACTIVITY W% / LOCOMOTOR ACTIVITY (LIGHT AREA) W% / % ACTIVITY DARK AREA Mean ± SD: concentration or dose not given beside the values; settings: for % ACTIVITY DARK AREA Mean ± SD / LATENCY (SEC) Mean ± SD / LOCOMOTOR ACTIVITY (LIGHT AREA) Mean ± SD / SHUTTLE ACTIVITY Mean ± SD / TIME DARK AREA (SEC) Mean ± SD: i.p., 15 min post-treatment, monitored for 10 minutes; for % ACTIVITY DARK AREA W% / LATENCY (SEC) W% / LOCOMOTOR ACTIVITY (LIGHT AREA) W% / SHUTTLE ACTIVITY W% / TIME DARK AREA (SEC) W%: percentage change from control
Method: In brief, the method involves determining whether a compound reduces the natural anxiety of mice in brightly-lit areas.
The following describes an in vivo method for determining anxiolytic activity of compounds of Formula I.
Naive male C5BI/6J mice, 18-20 g, are kept in groups of 10 mice in quarters controlled for sound, temperature and humidity. Food and water are available ad libitum. The mice are kept on a 12 hour light and 12 hour dark cycle, with lights on at 6:00 a.m. and off at 6:00 p.m. All experiments begin at least 7 days after arrival on site.
Briefly, the chamber consists of a plexiglass box (44 x 21 x 21 cm), divided into two chambers by a black plexiglass partition. The partition dividing the two chambers contains a 13 x 5 cm opening through which the mouse can easily pass. The dark chamber has […]. A fluorescent tube light (40 watt) placed above the chambers provides the only illumination. The Digiscan Animal Activity Monitor System RXYZCM16 (Omni-Tech Electronics) records the exploratory activity of the mice within the test chambers.
Prior to commencement of the study the mice are given 60 min to acclimatize to the laboratory environment. After a mouse receives an intraperitoneal (i.p.) injection of either test compound or vehicle it is returned to its home cage for a 15 min post-treatment period. The mouse is then placed in the center of the light chamber and monitored for 10 minutes.
(§1) Anxiolysis is seen as a general increase in exploratory activity in the lighted area. An increase in exploratory activity is relected by increased latency (the time for the mouse to move to the dark chamber when first placed in the center of the lighted area), increase in shuttle activity, increased or unaltered locomotor activity (number of grid lines crossed) and decreased time spent in the dark compartment.

BKW mice = settings: 1 µ/g/kg i.p.
Method: Anxiolytic activity during withdrawal from drugs of abuse is determined by the mouse light/dark withdrawal anxiety test. This procedure utilizes the exploratory model described above to test for anxiolytic activity after administration and subsequent abrupt cessation of diazepam, alcohol, cocaine or nicotine treatments. A detailed description is set for in Example 13 of this application.
The following procedure describes a method to determine whether compounds of Formula I effect the anxiety that occurs after abruptly ceasing chronic treatment with drugs of abuse.
Naive male BKW mice (25-30 g) are caged in groups of ten in quarters controlled for sound, temperature and humidity. Food and water are available ad libitum. The mice are kept on a 12 hour light cycle and 12 hour dark cycle, with lights on at 6:00 a.m. and off at 6:00 p.m. All experiments begin at least 7 days after arrival on site.
as §1, with “Levels of anxiety are determined by the two-compartment exploratory model of Crawley and Goodwin (see Example 12). Anxiolysis” for “Anxiolysis”, “area),” for “area), increase in shuttle activity,”, “crossed), increased number of rears” for “crossed)”
Increased exploratory activity in the lighted area is induced by treating the mice for 14 days with alcohol (8.0 % w/v in drinking water), nicotine (0.1 mg/kg, i.p., twice daily), diazepam (10 mg/kg, i.p., twice daily), or cocaine (1.0 mg/kg, i.p., twice daily). Anxiolysis is assessed 1, 3, 7 and 14 days after commencement of the drug regime. The treatment is abruptly ceased and exploratory activity in the lighted area is determined 8, 24 and 48 hours thereafter. Vehicle or test compounds are administered during the withdrawl phase by intraperitoneal injection. Responses are represented as inhibition of the decrease in anxiolytic behavior after the alcohol, cocaine or nicotine treatment is ceased.

[1] = Toxicity observation after i.p. administration; format: in vivo; settings: 10 mg/kg, over 90 minutes

| Structure (SMILES) | % ACTIVITY DARK AREA Mean ± SD (C5BI/6J mice) | LATENCY (SEC) Mean ± SD (C5BI/6J mice) | LOCOMOTOR ACTIVITY (LIGHT AREA) Mean ± SD (C5BI/6J mice) | SHUTTLE ACTIVITY Mean ± SD (C5BI/6J mice) | TIME DARK AREA (SEC) Mean ± SD (C5BI/6J mice) | % ACTIVITY DARK AREA W% (C5BI/6J mice) | LATENCY (SEC) W% (C5BI/6J mice) | LOCOMOTOR ACTIVITY (LIGHT AREA) W% (C5BI/6J mice) | SHUTTLE ACTIVITY W% (C5BI/6J mice) | TIME DARK AREA (SEC) W% (C5BI/6J mice) | unusual effects observed [1] | further results |
| --- | --- | --- | --- | --- | --- | --- | --- | --- | --- | --- | --- | --- |
| I.Nc1c(Cl)cc2c3c(cccc13)C(=O)N([C@@H]1CN3CCC1CC3)C2=O [(2), S-6-amino-5-chloro-2-(1-azabicyclo[2.2.2]oct-3-yl)-2,3-dihydro-1H-benz[de]isoquinoline-1,3-dione hydrogeniodide] | 78.4 ± 1.8 % | 8.1 ± 1.4 s | 1602.4 ± 73.0 | 138.6 ± 9.1 | 498.4 ± 9.3 s | -10.0% | 102.5% | 42.6% | 112.3% | -10.8% |  |  |
| Cl.Nc1c(Cl)cc2c3c(cccc13)C(=O)N([C@@H]1CN3CCC1CC3)C2=O [(1), S-6-amino-5-chloro-2-(1-azabicyclo[2.2.2]oct-3-yl)-2,3-dihydro-1H-benz[de]isoquinoline-1,3-dione hydrochloride] | 37.6 ± 4.9 % | 3.5 ± 0.5 s | 1208.0 ± 86.4 | 42.0 ± 3.9 | 394.9 ± 32.8 s | -54.0% | -28.6% | 41.0% | 37.3% | -26.9% |  | Crossings/ 5 Min in Light (BKW mice; alcohol withdrawal): 88.0±9.0; Latency (BKW mice; alcohol withdrawal): 9.0 ± 1.3 s; Rears/5 Min in Light (BKW mice; alcohol withdrawal): 86.0±9.0; Time in Dark (%) (BKW mice; alcohol withdrawal): 60.0±6.4%; Crossings/ 5 Min in Light (BKW mice; cocaine withdrawal): 135.±15.7; Latency (BKW mice; cocaine withdrawal): 28.7 ± 2.81 s; Rears/5 Min in Light (BKW mice; cocaine withdrawal): 101.±2.81; Time in Dark (%) (BKW mice; cocaine withdrawal): 22.5±2.4%; Crossings/ 5 Min in Light (BKW mice; diazepam withdrawal): 97.5±10.6; Latency (BKW mice; diazepam withdrawal): 34.0 ± 3.7 s; Rears/5 Min in Light (BKW mice; diazepam withdrawal): 89.2±9.1; Time in Dark (%) (BKW mice; diazepam withdrawal): 27.4±2.9%; Crossings/ 5 Min in Light (BKW mice; nicotine withdrawal): 94.0±10.1; Latency (BKW mice; nicotine withdrawal): 20.8 ± 2.4 s; Rears/5 Min in Light (BKW mice; nicotine withdrawal): 84.5±9.0; Time in Dark (%) (BKW mice; nicotine withdrawal): 29.0±3.1% |
| Cl.Nc1cc2c3c(cccc3c1Cl)C(=O)N(C1CN3CCC1CC3)C2=O (stereo not shown) [RS-6-chloro-5-amino-2-(1-azabicyclo[2.2.2]oct-3-yl)-2,3-dihydro-1H-benz[de]isoquinoline-1,3-dione hydrochloride] |  |  |  |  |  |  |  |  |  |  | No unusual effects |  |
| Cc1nccn1CC1CCc2c(c3ccccc3n2C)C1=O (stereo not shown) [Ondansetron, reference compound] | 78.5 ± 4.7% | 6.7 ± 1.5 s | 1582.0 ± 77.8 | 121.0 ± 12.4 | 499.4 ± 14.8 s | -13.1% | 4.7% | 52.6% | 182.7% | -12.8% |  |  |
| Cl.O=C1c2cccc3cccc(c23)C(=O)N1[C@@H]1CN2CCC1CC2 [S-2-(1-azabicyclo[2.2.2]oct-3-yl)-2,3-dihydro-1H-benz[de]isoquinoline-1,3-dione hydrochloride] |  |  |  |  |  |  |  |  |  |  | No unusual effects |  |
| Cl.Nc1cc2c3c(cccc3c1Cl)C(=O)N([C@@H]1CN3CCC1CC3)C2=O [S-6-chloro-5-amino-2-(1-azabicyclo[2.2.2]oct-3-yl)-2,3-dihydro-1H-benz[de]isoquinoline-1,3-dione hydrochloride] |  |  |  |  |  |  |  |  |  |  | No unusual effects |  |
